Experimental data: article doi:10.1101/2025.04.28.650819v3 (biorxiv, 2025)
pIC50: −log10 of the molar value.

Experiments:
[1] = molecular target: PheRS (Mycobacterium tuberculosis, UniProt P9WFU3); assay: ATP consumption assay; assay type: biochemical
[2] = molecular target: T1, FtsZ (Mycobacterium tuberculosis, UniProt P9WN95); assay: thermal shift assay; assay type: binding; conditions: read-out: thermal shift (dTm) at 100 μM, 16 h
T1 sequence (P9WN95 1-379): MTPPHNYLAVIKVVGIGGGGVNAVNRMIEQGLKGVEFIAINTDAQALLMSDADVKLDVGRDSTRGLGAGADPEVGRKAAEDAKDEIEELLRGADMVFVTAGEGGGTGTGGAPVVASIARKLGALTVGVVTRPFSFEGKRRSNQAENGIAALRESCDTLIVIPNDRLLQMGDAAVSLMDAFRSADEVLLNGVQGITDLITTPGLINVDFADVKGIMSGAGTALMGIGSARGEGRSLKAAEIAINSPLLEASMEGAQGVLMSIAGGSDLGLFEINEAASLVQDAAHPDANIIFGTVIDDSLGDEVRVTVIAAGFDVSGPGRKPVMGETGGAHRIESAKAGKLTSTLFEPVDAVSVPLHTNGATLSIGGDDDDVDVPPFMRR

PheRS, sequence (P9WFU3 whole entry): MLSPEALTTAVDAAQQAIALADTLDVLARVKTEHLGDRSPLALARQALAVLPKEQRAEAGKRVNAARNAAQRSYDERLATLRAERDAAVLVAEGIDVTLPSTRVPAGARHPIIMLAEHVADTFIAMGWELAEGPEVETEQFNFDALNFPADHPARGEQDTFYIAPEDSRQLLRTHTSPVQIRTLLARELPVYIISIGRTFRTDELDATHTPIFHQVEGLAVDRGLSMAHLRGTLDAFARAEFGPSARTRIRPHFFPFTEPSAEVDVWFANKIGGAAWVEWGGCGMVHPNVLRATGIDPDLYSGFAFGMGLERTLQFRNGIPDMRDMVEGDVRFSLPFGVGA
PheRS, sequence (P9WFU1 whole entry partner): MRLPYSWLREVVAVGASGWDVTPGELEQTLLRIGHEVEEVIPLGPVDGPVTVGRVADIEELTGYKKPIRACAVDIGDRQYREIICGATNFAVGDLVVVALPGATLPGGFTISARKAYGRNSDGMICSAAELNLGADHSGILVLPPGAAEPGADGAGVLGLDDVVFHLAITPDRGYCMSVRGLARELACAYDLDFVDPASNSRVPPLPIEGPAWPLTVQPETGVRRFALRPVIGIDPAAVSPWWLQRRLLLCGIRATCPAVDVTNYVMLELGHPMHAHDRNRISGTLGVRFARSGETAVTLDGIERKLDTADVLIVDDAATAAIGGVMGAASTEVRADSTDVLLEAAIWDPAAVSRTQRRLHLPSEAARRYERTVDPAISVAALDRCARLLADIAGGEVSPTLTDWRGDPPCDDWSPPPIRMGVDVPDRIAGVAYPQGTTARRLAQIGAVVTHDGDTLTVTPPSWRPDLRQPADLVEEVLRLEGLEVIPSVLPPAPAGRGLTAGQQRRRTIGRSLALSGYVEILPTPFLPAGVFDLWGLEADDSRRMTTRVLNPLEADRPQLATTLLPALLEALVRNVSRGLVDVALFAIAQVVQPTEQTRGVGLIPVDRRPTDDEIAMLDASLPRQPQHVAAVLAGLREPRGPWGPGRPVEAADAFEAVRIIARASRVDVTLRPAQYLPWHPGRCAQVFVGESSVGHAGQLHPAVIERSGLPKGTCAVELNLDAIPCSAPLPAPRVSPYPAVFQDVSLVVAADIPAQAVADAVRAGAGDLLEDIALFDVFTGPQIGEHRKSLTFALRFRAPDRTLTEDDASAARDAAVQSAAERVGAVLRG

Compound	pIC50 [1]	ΔTm at 100 µM [2] [°C]
O=C(Nc1cccc(-c2nn[nH]n2)c1)c1ccc2nc(-c3ccccc3)[nH]c2c1 [GDI-10928]	3.92	1.84
CC(=O)Nc1cc(Nc2cc(NC3CC3)n3ncc(C#N)c3n2)ccc1N(C)CC(=O)Nc1cccc(C(F)(F)F)c1 [GDI-10996]		1.25
